For experiment [1], the system named is phosphorylated ERK in MDA-MB-231 breast cancer cells. Description: Western blotting for phosphorylated ERK in EGF-stimulated MDA-MB-231 cells. The experiment is classed as cell-based. To be noted: Homo sapiens, Table 4, compound 30 min, 100 ng/ml EGF 5 min. Here is the method:
Effects of compounds in the cell were determined by Western blotting for phosphorylated ERK. MDA-MB-231 breast cancer cells were plated in a 48 well plate at 20,000 cells per well and grown in a 37° humidified CO2 incubator. The following day, the growth media (DMEM+10% fetal bovine serum) was removed and replaced with starve media (DMEM+0.1% fetal bovine serum). Cells were incubated in the starve media for sixteen hours and then treated with a range of compound concentrations for thirty minutes. After incubation with compound, cells were stimulated with 100 ng/ml EGF for five minutes. The cells were then lysed and analyzed by Western blot using a monoclonal antibody raised to phosphorylated ERK. The signal was amplified using a secondary antibody conjugated to a near-IR dye and detected on a Licor Odyssey scanner.

The target of experiment [2] is T1, MEK1^CA (human GST-MEK1, constitutively active, Ser218Asp and Ser222Asp) (Homo sapiens, UniProt Q02750, S218D/S222D).
T1 construct: GST; made in house; host or cells: Escherichia coli
Description: MEK1 enzymatic activity assay (MEK1^CA / ERK2 / MBP, [γ-33P]ATP incorporation). Format: biochemical. Put shortly: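 Cascade assay: 25 µl reactions with 0.002 nmol E. coli-expressed GST-MEK1 S218D/S222D, 0.02 nmol His-tagged mouse ERK2, 0.25 nmol MBP, 0.25 nmol unlabeled ATP and 0.1 µCi [γ-33P]ATP. Compound preincubated 30 min at ambient temperature with MEK1/ERK2; stopped with TCA, 33P-labelled protein filter-captured and scintillation-counted.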

Setting [3] is: Table 4, R' is (CH2)1 or 2-G, read-out: IC50.
Setting [4] is: Table 1, compounds of formula I, read-out: Avg IC50.
Setting [5] is: Table 3, benzamides of formula X, read-out: IC 50.

Each structure is given as a SMILES string. Read-outs that look alike come from different tables or passages of the source. Where only a bound is given, the exact number is not on record here.

T1 sequence (Q02750 whole entry S218D/S222D): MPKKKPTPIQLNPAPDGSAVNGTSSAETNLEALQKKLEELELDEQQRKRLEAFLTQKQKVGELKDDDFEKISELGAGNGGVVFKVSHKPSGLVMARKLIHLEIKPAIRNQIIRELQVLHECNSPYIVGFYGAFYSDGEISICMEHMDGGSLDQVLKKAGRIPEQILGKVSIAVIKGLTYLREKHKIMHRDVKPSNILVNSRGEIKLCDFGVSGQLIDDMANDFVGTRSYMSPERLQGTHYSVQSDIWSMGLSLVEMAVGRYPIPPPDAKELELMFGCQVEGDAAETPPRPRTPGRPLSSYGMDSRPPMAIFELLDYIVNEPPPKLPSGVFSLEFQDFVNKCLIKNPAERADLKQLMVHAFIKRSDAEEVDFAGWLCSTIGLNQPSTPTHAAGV

In experiment [1], `N=C(NCCN1CCNC(=O)C1)c1c(O)nsc1Nc1ccc(Oc2cc(Cl)ccc2Cl)cc1` yielded an EC50 of 1 to 100 nM.
On to `N=C(NCCc1cnc[nH]1)c1c(O)nsc1Nc1ccc(Oc2cc(Cl)ccc2Cl)cc1`, for which, in experiment [2] (setting [3]), the IC50 was in the range of 1 to 100 nM. The same compound came in with an EC50 in experiment [1] of 1 to 100 nM.
Consider `N=C(NCCN1CCOCC1)c1c(O)nsc1Nc1ccc(Oc2cc(Cl)ccc2Cl)cc1`, for which the EC50 in experiment [1] was 1 to 100 nM.
Turning to `CC1CN(CCNC(=N)c2c(O)nsc2Nc2ccc(Oc3cc(Cl)ccc3Cl)cc2)CC(C)O1` (centres unmarked), the IC50 in experiment [2] (setting [3]) was 100 to 500 nM. In addition, the EC50 in experiment [1] lay in the range of 100 to 500 nM.
For the compound `CN1CCN(CCNC(=N)c2c(O)nsc2Nc2ccc(Oc3cc(Cl)ccc3Cl)cc2)CC1`, the EC50 in experiment [1] was 100 to 500 nM.
Consider `N=C(NCCN1CCCC1=O)c1c(O)nsc1Nc1ccc(Oc2cc(Cl)ccc2Cl)cc1`, for which, in experiment [2] (setting [3]), the IC50 fell in the range of 1 to 100 nM. This compound also had an EC50 in experiment [1] of 100 to 500 nM.
In experiment [1], `N=C(NCC1CCCO1)c1c(O)nsc1Nc1ccc(Oc2cc(Cl)ccc2Cl)cc1` (centres unmarked) registered an EC50 of 1 to 100 nM.
The compound `N=C(NCCN1CCNCC1)c1c(O)nsc1Nc1ccc(Oc2cc(Cl)ccc2Cl)cc1` came in with an EC50 in experiment [1] of 1 to 100 nM.
Consider `CC[C@H](CO)NC(=N)c1c(O)nsc1Nc1ccc(Oc2cc(F)cc(F)c2)cc1C` [compound 469], for which the IC50 in experiment [2] (setting [4]) was in the range of 1 to 100 nM.
The same measure, in the same setting: with `COCCNC(=N)c1c(O)nsc1Nc1ccc(Oc2cc(F)cc(F)c2)cc1C` [compound 470] the figure was 1 to 100 nM.
The same measure, in the same setting: with `Cc1cc(Oc2cccc(C(F)(F)F)c2)ccc1Nc1snc(O)c1C(=N)NO` [compound 471] the figure was over 500 nM.
`Cc1cc(Oc2cccc(C(F)(F)F)c2)ccc1Nc1snc(O)c1C(=N)NCC(O)CO` (centres unmarked) [compound 472]: the IC50 in experiment [2] (setting [4]) was in the range of 1 to 100 nM.
Turning to `CCC(CO)NC(=N)c1c(O)nsc1Nc1ccc(Oc2cccc(C(F)(F)F)c2)cc1C` (centres unmarked) [compound 473], the IC50 in experiment [2] (setting [4]) fell in the range of 1 to 100 nM.
On the same count and under the same terms, with `CC[C@H](CO)NC(=N)c1c(O)nsc1Nc1ccc(Oc2cccc(C(F)(F)F)c2)cc1C` [compound 474] the figure was 1 to 100 nM; with `CC(C)NC(=N)c1c(O)nsc1Nc1cc(F)c(Oc2cc(Cl)ccc2Cl)cc1F` [compound 475], 1 to 100 nM.
`CC(CO)NC(=N)c1c(O)nsc1Nc1cc(F)c(Oc2cc(Cl)ccc2Cl)cc1F` (centres unmarked) [compound 476]: the IC50 in experiment [2] (setting [4]) was 1 to 100 nM.
Still for that read-out and setting: with `N=C(NCC(O)CO)c1c(O)nsc1Nc1cc(F)c(Oc2cc(Cl)ccc2Cl)cc1F` (centres unmarked) [compound 477] the figure was 1 to 100 nM; with `CC(O)CNC(=N)c1c(O)nsc1Nc1cc(F)c(Oc2cc(Cl)ccc2Cl)cc1F` (centres unmarked) [compound 478], 1 to 100 nM.
In the case of `COC(=O)c1cccc(Nc2snc(O)c2C(=N)NC(C)C)c1C` [compound 479], in experiment [2] (setting [4]), the IC50 is over 500 nM.
On the same count and under the same terms, with `CCOC(=O)c1ccc(Oc2ccc(Nc3snc(O)c3C(=N)NC(C)C)cc2)cc1` [compound 485] the figure was 100 to 500 nM; with `CC(C)NC(=N)c1c(O)nsc1Nc1ccc(Oc2ccc(S(C)(=O)=O)cc2)cc1` [compound 486], over 500 nM; with `COC(=O)c1ccccc1Oc1ccc(Nc2snc(O)c2C(=N)NC(C)C)cc1` [compound 487], 1 to 100 nM.
For `CCOC(=O)c1cccc(Nc2snc(O)c2C(=N)NC(C)C)c1` [compound 488], the IC50 in experiment [2] (setting [4]) is over 500 nM.
As for `CCOC(=O)c1cccc(Nc2snc(O)c2C(=N)NC(C)CO)c1` (centres unmarked) [compound 489], in experiment [2] (setting [4]), the IC50 is over 500 nM.
Take `COC(=O)c1cccc(Nc2snc(O)c2C(=N)NC(C)CO)c1C` (centres unmarked) [compound 490]: the IC50 in experiment [2] (setting [4]) lay in the range of 100 to 500 nM.
As to `CC(CO)NC(=N)c1c(O)nsc1Nc1ccc(Oc2ccc(S(C)(=O)=O)cc2)cc1` (centres unmarked) [compound 491], the IC50 in experiment [2] (setting [4]) is over 500 nM.
In the case of `Cc1cc(Oc2cccc(C(F)(F)F)c2)ccc1Nc1snc(O)c1C(=N)NC(CO)C(C)C` (centres unmarked) [compound 492], the IC50 in experiment [2] (setting [4]) fell in the range of 100 to 500 nM.
On the same count and under the same terms, next, `COC(=O)c1ccccc1Oc1ccc(Nc2snc(O)c2C(=N)NC(C)CO)cc1` (centres unmarked) [compound 493]: 1 to 100 nM.
On the same count and under the same terms, next, `CCOC(=O)c1ccccc1Oc1ccc(Nc2snc(O)c2C(=N)NC(C)CO)cc1` (centres unmarked) [compound 494]: 1 to 100 nM.
In the case of `COC(=O)c1cccc(Nc2snc(O)c2C(=N)NCC(C)O)c1C` (centres unmarked) [compound 495], in experiment [2] (setting [4]), the IC50 is over 500 nM.
Take `CCOC(=O)c1cccc(Nc2snc(O)c2C(=N)NCC(C)O)c1` (centres unmarked) [compound 496]: in experiment [2] (setting [4]), the IC50 was over 500 nM.
With `CCOC(=O)c1ccc(Oc2ccc(Nc3snc(O)c3C(=N)NC(C)CO)cc2)cc1` (centres unmarked) [compound 497], in experiment [2] (setting [4]), the IC50 was in the range of 1 to 100 nM.
For `CCOC(=O)c1cccc(Nc2snc(O)c2C(=N)NCC(O)O)c1` [compound 498], the IC50 in experiment [2] (setting [4]) lay within 100 to 500 nM.
As to `COC(=O)c1cccc(Nc2snc(O)c2C(=N)NCC(O)O)c1C` [compound 499], in experiment [2] (setting [4]), the IC50 was in the range of 100 to 500 nM.
On the same count and under the same terms, with `Cc1cc(Oc2cccc(F)c2F)ccc1Nc1snc(O)c1C(=N)NO` [compound 500] the figure was 1 to 100 nM; with `Cc1cc(Oc2cccc(F)c2F)ccc1Nc1snc(O)c1C(=N)N(O)C(C)C` [compound 501], 100 to 500 nM; with `COCC(C)NC(=N)c1c(O)nsc1Nc1ccc(Oc2cccc(F)c2F)cc1C` (centres unmarked) [compound 502], 1 to 100 nM.
In the case of `Cc1cc(Oc2cccc(F)c2F)ccc1Nc1snc(O)c1C(=N)NC(CO)C(C)C` (centres unmarked) [compound 503], the IC50 in experiment [2] (setting [4]) lay within 100 to 500 nM.
The same measure, in the same setting: next, `CCC(CO)NC(=N)c1c(O)nsc1Nc1ccc(Oc2cccc(F)c2F)cc1C` (centres unmarked) [compound 504]: 100 to 500 nM.
Regarding `COCCNC(=N)c1c(O)nsc1Nc1ccc(Oc2cccc(F)c2F)cc1C` [compound 505], the IC50 in experiment [2] (setting [4]) lay in the range of 1 to 100 nM.
Consider `CC[C@@H](CO)NC(=N)c1c(O)nsc1Nc1ccc(Oc2cccc(C(F)(F)F)c2)cc1C` [compound 506], for which the IC50 in experiment [2] (setting [4]) was in the range of 100 to 500 nM.
Same read-out and setting: next, `CC(O)CNC(=N)c1c(O)nsc1Nc1ccc(Oc2ccccc2C(=O)NCC(C)O)cc1` (centres unmarked) [compound 507]: over 500 nM; `N=C(NCC(O)CO)c1c(O)nsc1Nc1ccc(Oc2ccccc2C(=O)NCC(O)CO)cc1` (centres unmarked) [compound 508]: over 500 nM; `CC(CO)NC(=N)c1c(O)nsc1Nc1ccc(-c2nc3ccccc3[nH]2)cc1` (centres unmarked) [compound 509]: over 500 nM.
Consider `CC(O)CNC(=N)c1c(O)nsc1Nc1ccc(-c2nc3ccccc3[nH]2)cc1` (centres unmarked) [compound 510], for which, in experiment [2] (setting [4]), the IC50 was over 500 nM.
As to `N=C(NCCO)c1c(O)nsc1Nc1ccc(-c2nc3ccccc3[nH]2)cc1` [compound 511], the IC50 in experiment [2] (setting [4]) is over 500 nM.
Same read-out and setting: next, `N=C(NCC(O)CO)c1c(O)nsc1Nc1ccc(-c2nc3ccccc3[nH]2)cc1` (centres unmarked) [compound 512]: over 500 nM.
As to `N=C(NCCO)c1c(O)nsc1Nc1ccc(C(=O)Nc2ccccc2)cc1` [drawing 809], the IC50 in experiment [2] (setting [5]) was in the range of 100 to 500 nM.
Same read-out and setting: next, `CC(C)NC(=N)c1c(O)nsc1Nc1ccc(C(=O)Nc2ccccc2)cc1` [drawing 810]: 1 to 100 nM; `N=C(NCC1CCCCC1)c1c(O)nsc1Nc1ccc(C(=O)Nc2ccccc2)cc1` [drawing 811]: over 500 nM.
Same read-out and setting: next, `CC(CO)NC(=N)c1c(O)nsc1Nc1ccc(C(=O)Nc2ccccc2)cc1` (centres unmarked) [drawing 812]: 1 to 100 nM.
Consider `N=C(NCCc1ccccc1)c1c(O)nsc1Nc1ccc(Oc2ccccc2)cc1` [drawing 821], for which, in experiment [2] (setting [3]), the IC50 fell in the range of 100 to 500 nM. In experiment [1], this compound returned an EC50 of 100 to 500 nM.
Regarding `Cc1ccc(Oc2ccc(Nc3snc(O)c3C(=N)NCC3CCCCC3)cc2)cc1` [drawing 823], the IC50 in experiment [2] (setting [3]) lay within 1 to 100 nM.
Same read-out and setting: next, `Cc1ccc(Oc2ccc(Nc3snc(O)c3C(=N)NCC3CCCCC3)cc2)cn1` [drawing 824]: 100 to 500 nM; `Cc1ccc(Oc2ccc(Nc3snc(O)c3C(=N)NCC3CCCCC3)cn2)cn1` [drawing 825]: over 500 nM.
Same read-out and setting: with `N=C(NCC1CCCCC1)c1c(O)nsc1Nc1ccc(Sc2ccccc2)cc1` [drawing 826] the figure was 1 to 100 nM; with `N=C(NCC1CCCCC1)c1c(O)nsc1Nc1ccc(Oc2cncnc2)cc1` [drawing 827], over 500 nM; with `N=C(NCC1CCCCC1)c1c(O)nsc1Nc1ccc(Oc2ccccc2)nc1` [drawing 828], 100 to 500 nM.
For the compound `N=C(NCCN1CCNCC1)c1c(O)nsc1Nc1ccc(Oc2cc(F)cc(F)c2)cc1` [drawing 829], the IC50 in experiment [2] (setting [3]) was 1 to 100 nM.
The same measure, in the same setting: with `N=C(NCCN1CCOCC1)c1c(O)nsc1Nc1ccc(Oc2cc(F)cc(F)c2)cc1` [drawing 830] the figure was 100 to 500 nM.
Consider `N=C(NCC1CCCCC1)c1c(O)nsc1Nc1ccc(Sc2ccc([N+](=O)[O-])cc2)cc1` [drawing 831], for which the IC50 in experiment [2] (setting [3]) fell in the range of 100 to 500 nM.

The values are drawn from patent US7652047B2, “Phenylamino isothiazole carboxamidines as MEK inhibitors” (Ardea Biosciences, Inc., priority 2005, dated 2010).
